Where two headings read alike, the source gives them in different places.
Biological target: T1, PD-1-Ig binding to PD-L1-TVMV-His (PD-L1-His) (Homo sapiens, UniProt Q9NZQ7)
T1 construct: hPDL1(19-239)-TVMV-His; TVMV protease cleavage site (C); made in house; host or cells: HEK293T cells
Test: PD-1/PD-L1 Homogenous Time-Resolved Fluorescence (HTRF) binding assay
Settings: PD-1-Ig (20 nM) / PD-L1-His (10 nM), read-out: LE HTRF hPD1 hPDL1 IC50
Excerpt: Methods for Testing the Ability of Macrocyclic Peptides to Compete for the Binding of Pd-1 to Pd-L1 Using Homogenous Time-Resolved Fluorescence (HTRF) Binding Assays
The ability of the macrocyclic peptides of the present disclosure to bind to PD-L1 was investigated using a PD-1/PD-L1 Homogenous Time-Resolved Fluorescence (HTRF) binding assay.
Homogenous Time-Resolved Fluorescence (HTRF) Assays of Binding of Soluble PD-1 to Soluble PD-L1. Soluble PD-1 and soluble PD-L1 refers to proteins with carboxyl-end truncations that remove the transmembrane-spanning regions and are fused to heterologous sequences, specifically the Fc portion of the human immunoglobuling G sequence (Ig) or the hexahistidine epitope tag (His). All binding studies were performed in an HTRF assay buffer consisting of dPBS supplemented with 0.1% (w/v) bovine serum albumin and 0.05% (v/v) Tween-20. For the PD-1-Ig/PD-L1-His binding assay, inhibitors were pre-incubated with PD-L1-His (10 nM final) for 15 m in 4 μl of assay buffer, followed by addition of PD-1-Ig (20 nM final) in 1 μl of assay buffer and further incubation for 15 m. PD-L1 fusion proteins from either human, cynomologous macaques, mouse, or other species were used. HTRF detection was achieved using europium crypate-labeled anti-Ig monoclonal antibody (1 nM final) and allophycocyanin (APC) labeled anti-His monoclonal antibody (20 nM final). Antibodies were diluted in HTRF detection buffer and 5 μl was dispensed on top of binding reaction. The reaction was allowed to equilibrate for 30 minutes and signal (665 nm/620 nm ratio) was obtained using an EnVision fluorometer. Additional binding assays were established between PD-1-Ig/PD-L2-His (20 and 5 nM, respectively), CD80-His/PD-L1-Ig (100 and 10 nM, respectively) and CD80-His/CTLA4-Ig (10 and 5 nM, respectively). Binding/competition studies between biotinylated Compound No. 71 and human PD-L1-His were performed as follows. Macrocyclic peptide inhibitors were pre-incubated with PD-L1-His (10 nM final) for 60 minutes in 4 μl of assay buffer followed by addition of biotinylated Compound No. 71 (0.5 nM final) in 1 μl of assay buffer. Binding was allowed to equilibrate for 30 minutes followed by addition of europium crypated labeled Streptavidin (2.5 pM final) and APC-labeled anti-His (20 nM final) in 5 μl of HTRF buffer. The reaction was allowed to equilibrate for 30 m and signal (665 nm/620 nm ratio) was obtained using an EnVision fluorometer.
Recombinant Proteins. Carboxyl-truncated human PD-1 (amino acids 25-167) with a C-terminal human Ig epitope tag [hPD-1 (25-167)-3S-IG] and human PD-L1 (amino acids 18-239) with a C-terminal His epitope tag [hPD-L1(19-239)-tobacco vein mottling virus protease cleavage site (TVMV)-His] were expressed in HEK293T cells and purified sequentially by recombinant Protein A affinity chromatography and size exclusion chromatography. Human PD-L2-His (Sino Biologicals), CD80-His (Sino Biologicals), CTLA4-Ig (RnD Systems) were all obtained through commercial sources.
Ranges are as follows: A=0.010-0.060 μM; B=0.0011-0.009 μM; C=0.0003-0.0010 μM.

T1 sequence (Q9NZQ7 with tags, fused parts or gaps): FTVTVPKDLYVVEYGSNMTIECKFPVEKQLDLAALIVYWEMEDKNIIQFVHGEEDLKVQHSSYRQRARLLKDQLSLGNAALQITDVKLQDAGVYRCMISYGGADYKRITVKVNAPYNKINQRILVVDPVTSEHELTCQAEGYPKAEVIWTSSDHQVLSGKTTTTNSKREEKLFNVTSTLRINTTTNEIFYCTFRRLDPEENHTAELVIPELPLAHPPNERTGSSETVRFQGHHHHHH

Structure (SMILES) | IC50 (numeric values) [nM] | IC50 (range classes) [nM]
CCCC[C@H]1C(=O)N(C)[C@@H](CCCC)C(=O)N[C@@H](CC(C)C)C(=O)N[C@H](C(=O)NCC(=O)N[C@@H](Cc2cn(CCOCCOCCOCCOCCOCCOCCOCCOCCOCCOCCOCCNC(=O)CC[C@H](NC(=O)CCCCCCCCCCCCCCCCC(=O)O)C(=O)O)nn2)C(=O)O)CSCC(=O)N[C@@H](Cc2ccc(O)cc2)C(=O)N(C)[C@@H](C)C(=O)N[C@@H](CC(N)=O)C(=O)N2CCC[C@H]2C(=O)N[C@@H](CN)C(=O)N[C@@H](CC(C)C)C(=O)N2C[C@H](O)C[C@H]2C(=O)N[C@@H](Cc2c[nH]c3ccccc23)C(=O)N[C@@H](CCN)C(=O)N[C@@H](Cc2nn(CC(=O)OC)c3ccccc23)C(=O)N1C [Example 23] |  | 0.3 to 1
CCCC[C@H]1C(=O)N(C)[C@@H](CCCC)C(=O)N[C@@H](CC(C)C)C(=O)N[C@H](C(=O)N[C@@H](Cc2cn(CCOCCOCCOCCOCCOCCOCCOCCOCCOCCOCCOCCNC(=O)CC[C@H](NC(=O)CCCCCCCCCCCCCCCCC(=O)O)C(=O)O)nn2)C(=O)O)CSCC(=O)N[C@@H](Cc2ccc(O)cc2)C(=O)N(C)[C@@H](C)C(=O)N[C@@H](CC(N)=O)C(=O)N2CCC[C@H]2C(=O)N[C@@H](CN)C(=O)N[C@@H](CC(C)C)C(=O)N2C[C@H](O)C[C@H]2C(=O)N[C@@H](Cc2c[nH]c3ccccc23)C(=O)N[C@@H](CCN)C(=O)N[C@@H](Cc2nn(CC(=O)O)c3ccc(OC)cc23)C(=O)N1C [Example 24] |  | 0.3 to 1
CCCC[C@H]1C(=O)N(C)[C@@H](CCCC)C(=O)N[C@@H](CC(C)C)C(=O)N[C@H](C(=O)N[C@@H](Cc2cn(CCOCCOCCOCCOCCOCCOCCOCCOCCOCCOCCOCCNC(=O)CC[C@H](NC(=O)CCCCCCCCCCCCCCCCC(=O)O)C(=O)O)nn2)C(=O)O)CSCC(=O)N[C@@H](Cc2ccc(O)cc2)C(=O)N(C)[C@@H](C)C(=O)N[C@@H](CC(N)=O)C(=O)N2CCC[C@H]2C(=O)N[C@@H](CN)C(=O)N[C@@H](CC(C)C)C(=O)N2C[C@H](O)C[C@H]2C(=O)N[C@@H](Cc2c[nH]c3ccccc23)C(=O)N[C@@H](CCN)C(=O)N[C@@H](Cc2cn(CC(=O)O)c3cccnc23)C(=O)N1C [Example 26] |  | 1.1 to 9
CCCC[C@H]1C(=O)N(C)[C@@H](CCCC)C(=O)N[C@@H](CC(C)C)C(=O)N[C@H](C(=O)NCC(=O)N[C@@H](Cc2cn(CCOCCOCCOCCOCCOCCOCCOCCOCCOCCOCCOCCNC(=O)CCC(NC(=O)CCCCCCCCCCCCCCCCC(=O)O)C(=O)O)nn2)C(=O)O)CSCC(=O)N[C@@H](Cc2ccc(O)cc2)C(=O)N(C)[C@@H](C)C(=O)N[C@@H](CC(N)=O)C(=O)N2CCC[C@H]2C(=O)N[C@@H](CN)C(=O)N[C@@H](CC(C)C)C(=O)N2C[C@H](O)C[C@H]2C(=O)N[C@@H](Cc2c[nH]c3ccccc23)C(=O)N[C@@H](CCN)C(=O)N[C@@H](Cc2cn(CC(=O)O)c3cccnc23)C(=O)N1C (stereo partly shown) [Example 28] |  | 10 to 60
CCCC[C@H]1C(=O)N(C)[C@@H](CCCC)C(=O)N[C@@H](CC(C)C)C(=O)N[C@H](C(=O)NCC(=O)N[C@@H](Cc2cn(CCOCCOCCOCCOCCOCCOCCOCCOCCOCCOCCOCCNC(=O)CC[C@H](NC(=O)CCCCCCCCCCCCCCCCC(=O)O)C(=O)O)nn2)C(=O)O)CSCC(=O)N[C@@H](Cc2ccc(O)cc2)C(=O)N(C)[C@@H](C)C(=O)N[C@@H](CC(N)=O)C(=O)N2CCC[C@H]2C(=O)N[C@@H](CN)C(=O)N[C@@H](CC(C)C)C(=O)N2C[C@H](O)C[C@H]2C(=O)N[C@@H](Cc2c[nH]c3ccccc23)C(=O)N[C@@H](CCN)C(=O)N[C@@H](Cc2nn(CC(=O)O)c3ccccc23)C(=O)N1C [Example 29] |  | 0.3 to 1
CCCC[C@H]1C(=O)N(C)[C@@H](CCCC)C(=O)N[C@@H](CC(C)C)C(=O)N[C@H](C(=O)NCC(=O)N[C@@H](Cc2cn(CCOCCOCCOCCOCCOCCOCCOCCOCCOCCOCCOCCNC(=O)CC[C@H](NC(=O)CCCCCCCCCCCCCCCCC(=O)O)C(=O)O)nn2)C(=O)O)CSCC(=O)N[C@@H](Cc2ccc(O)cc2)C(=O)N(C)[C@@H](C)C(=O)N[C@@H](CC(N)=O)C(=O)N2CCC[C@H]2C(=O)N[C@@H](CN)C(=O)N[C@@H](CC(C)C)C(=O)N2C[C@H](O)C[C@H]2C(=O)N[C@@H](Cc2c[nH]c3ccccc23)C(=O)N[C@@H](CCN)C(=O)N[C@@H](Cc2cn(CC(=O)NS(C)(=O)=O)c3ccccc23)C(=O)N1C [Example 30] |  | 1.1 to 9

Further lines, results first:

IC50 (numeric values) [nM] | IC50 (range classes) [nM] | Structure (SMILES)
0.6 |  | CCCC[C@H]1C(=O)N(C)[C@@H](CCCC)C(=O)N[C@@H](CC(C)C)C(=O)N[C@H](C(=O)N[C@@H](Cc2cn(CCOCCOCCOCCOCCOCCOCCOCCOCCOCCOCCOCCNC(=O)CC[C@H](NC(=O)CCCCCCCCCCCCCCCCC(=O)O)C(=O)O)nn2)C(=O)O)CSCC(=O)N[C@@H](Cc2ccc(O)cc2)C(=O)N(C)[C@@H](C)C(=O)N[C@@H](CC(N)=O)C(=O)N2CCC[C@H]2C(=O)N[C@@H](CN)C(=O)N[C@@H](CC(C)C)C(=O)N2C[C@H](O)C[C@H]2C(=O)N[C@@H](Cc2c[nH]c3ccccc23)C(=O)N[C@@H](CCN)C(=O)N[C@@H](Cc2nn(CC(=O)O)c3ccccc23)C(=O)N1C [Example 22]
 | 10 to 60 | CCCC[C@H]1C(=O)N(C)[C@@H](CCCC)C(=O)N[C@@H](CC(C)C)C(=O)N[C@H](C(=O)N[C@@H](Cc2cn(CCOCCOCCOCCOCCOCCOCCOCCOCCOCCOCCOCCNC(=O)CC[C@H](NC(=O)CCCCCCCCCCCCCCCCC(=O)O)C(=O)O)nn2)C(=O)O)CSCC(=O)N[C@@H](Cc2ccc(O)cc2)C(=O)N(C)[C@@H](C)C(=O)N[C@@H](CC(N)=O)C(=O)N2CCC[C@H]2C(=O)N[C@@H](CN)C(=O)N[C@@H](CC(C)C)C(=O)N2C[C@H](O)C[C@H]2C(=O)N[C@@H](Cc2c[nH]c3ccccc23)C(=O)N[C@@H](CCN)C(=O)NC(Cc2cn(CC(=O)O)c3ncccc23)C(=O)N1C (stereo partly shown) [Example 25]
 | 0.3 to 1 | CCCC[C@H]1C(=O)N(C)[C@@H](CCCC)C(=O)N[C@@H](CC(C)C)C(=O)N[C@H](C(=O)NCC(=O)N[C@@H](Cc2cn(CCOCCOCCOCCOCCOCCOCCOCCOCCOCCOCCOCCNC(=O)CCC(NC(=O)CCCCCCCCCCCCCCCCC(=O)O)C(=O)O)nn2)C(=O)O)CSCC(=O)N[C@@H](Cc2ccc(O)cc2)C(=O)N(C)[C@@H](C)C(=O)N[C@@H](CC(N)=O)C(=O)N2CCC[C@H]2C(=O)N[C@@H](CN)C(=O)N[C@@H](CC(C)C)C(=O)N2C[C@H](O)C[C@H]2C(=O)N[C@@H](Cc2c[nH]c3ccccc23)C(=O)N[C@@H](CCN)C(=O)N[C@@H](Cc2cn(CC(=O)O)c3ccc(OC)cc23)C(=O)N1C (stereo partly shown) [Example 27]
 | 0.3 to 1 | CCCC[C@H]1C(=O)N(C)[C@@H](CCCC)C(=O)N[C@@H](CC(C)C)C(=O)N[C@H](C(=O)NCC(=O)N[C@@H](Cc2cn(CCOCCOCCOCCOCCOCCOCCOCCOCCOCCOCCOCCNC(=O)CC[C@H](NC(=O)CCCCCCCCCCCCCCCCC(=O)O)C(=O)O)nn2)C(=O)O)CSCC(=O)N[C@@H](Cc2ccc(O)cc2)C(=O)N(C)[C@@H](C)C(=O)N[C@@H](CC(N)=O)C(=O)N2CCC[C@H]2C(=O)N[C@@H](CN)C(=O)N[C@@H](CC(C)C)C(=O)N2C[C@H](O)C[C@H]2C(=O)N[C@@H](Cc2c[nH]c3ccccc23)C(=O)N[C@@H](CCN)C(=O)N[C@@H](Cc2cn(CC(=O)O)c3ncccc23)C(=O)N1C [Example 31]
